Three compounds from patent publication US20170312333A1, “Composition for Treating Cancer Stem Cells” (Industry-Academic Corporation Foundation, Yonsei University, priority 2014, published 2017) can be followed below.

Each structure is given as a SMILES string.

In assay [1] the test system is cancer stem cells. Put plainly: Extracellular Ca2+ concentration of cancer stem cells after PMCA or SERCA inhibition. The format is cell-based. To be noted: nutrient deprivation. The source says:
In order to examine whether the calcium concentration regulatory ability of the cancer stem cells is changed when PMCA is inhibited under nutrient deprivation, the activity of PMCA and SERCA was inhibited by using caloxin (which is a calcium pump inhibitor) as an inhibitor of PMCA acting as Ca^2+-ATPase (calcium ATPase) in the plasma membrane and using thapsigargin which is an inhibitor of SERCA (sarco/endoplasmic reticulum Ca^2+-ATPase) acting as Ca^2+-ATPase (calcium ATPase), and then changes in the extracellular Ca^2+ concentrations of the cancer stem cells were measured.

Assay [2] concerns cancer stem cells. As to the kind of experiment: Viability of cancer stem cells under nutrient deprivation after PMCA or SERCA inhibition. The format is cell-based. As to the method:
In order to compare the viabilities of cancer cells and cancer stem cells under glucose deprivation, each of p-MDA-MB-231, p-MCF-7, s-MDA-MB-231 and s-MCF-7 cell lines, prepared in the same manner as described in Example 1, was added to a 96-well plate at a concentration of 5×10^3 cells/100 μL and cultured to a confluence of about 70%, and then the medium was replaced with a glucose-deprived in RPMI-1640 medium containing 10% FBS, and the cells were further cultured for 3 days. At each of 0, 12, 24, 36, 48, 60 and 72 hours, the viability of each of the cell lines was determined by crystal violet staining and an MTT (3-(4,5-dimethylthiazol-2-yl)-2,5-diphenyltetrazolium bromide) assay. In order to examine whether the calcium concentration regulatory ability of the cancer stem cells is changed when PMCA is inhibited under nutrient deprivation, the activity of PMCA and SERCA was inhibited by using caloxin (which is a calcium pump inhibitor) as an inhibitor of PMCA acting as Ca^2+-ATPase (calcium ATPase) in the plasma membrane and using thapsigargin which is an inhibitor of SERCA (sarco/endoplasmic reticulum Ca^2+-ATPase) acting as Ca^2+-ATPase (calcium ATPase), and then changes in the extracellular Ca^2+ concentrations of the cancer stem cells were measured.

In assay [3] the test system is cancer stem cells. As to the kind of experiment: Immunoblot analysis (Western blotting) of cancer stem cells under nutrient deprivation. The format is cell-based. To be noted: 10 μM. As to the method:
In order to examine whether apoptosis-related proteins are involved in apoptotic resistance which is the reason why the cancer stem cells show high viability under nutrient deprivation, each of p-MDA-MB-231, p-MCF-7, s-MDA-MB-231 and s-MCF-7 cell lines, cultured under glucose deprivation for 40 hours in the same manner as described in Example 2, was collected and subjected to immunoblot analysis. The collected cells were washed twice with chilled PBS (phosphate buffered saline) buffer, and lysed with RIPA buffer to isolate protein. For the next experiment, the amount of the isolated protein was measured by a BCA assay. 20 μg of the protein obtained from each of the cell lines was electrophoresed on 8-10% SDS-polyacrylamide gel and transferred to a PVDF membrane using electricity. The protein-transferred PVDP membranes were treated with 5% skim milk at room temperature for 1 hour, and then incubated with a primary antibody against each of caspase-3, caspase-7, Bcl-2 and beta-actin (control) at 4° C. for 16 hours. The PVDP membranes incubated with the antibodies were washed three times with TBST buffer to remove unbound primary antibodies, and were further incubated with HPR-conjugated secondary antibodies at room temperature for 1 hour. After completion of the incubation, the membranes were washed with TBST buffer to completely remove the secondary antibodies, and were treated with ECL buffer and incubated for 3 minutes, followed by exposure to Kodak X-OMAT AR Film. […]
(§1) In order to examine an effect which occurs when CaMK-2α signaling is inhibited, the cancer stem cells were treated with 10 μM of KN62 (1-[N,O-bis(5-isoquinolinesulfonyl)-N-methyl-L-tyrosyl]-4-phenylpiperazine) well known as an inhibitor of CaMK-2α, and then a TUNEL assay was performed in the same manner as described in Example 3.1 to examine apoptosis and DNA fragmentation. In addition, Western blotting was performed in the same manner as described in Example 3.2 to examine the expression of genes, and the viability of the cells was measured in the same manner as described in Example 2.
A general note: In western blotting, separated proteins are transferred to a membrane and probed.

Assay [4] deals with cancer stem cells. Put plainly: TUNEL assay (apoptosis, DNA fragmentation) in cancer stem cells under nutrient deprivation. The format is cell-based. To be noted: 10 μM. As to the method:
In order to examine whether the reason why cancer stem cells show high viability under nutrient deprivation is because of their resistance to apoptosis, each of p-MDA-MB-231, p-MCF-7, s-MDA-MB-231 and s-MCF-7 cell lines, cultured under glucose deprivation for 40 hours in the same manner as described in Example 2, was collected and subjected to a TUNEL assay. In the TUNEL assay, the collected cells were fixed with 4% paraformaldehyde solution for 48 hours, and then stained using a Terminal Deoxynucleotidyl Transferase dUTP Nick end Labeling (TUNEL) kit according to the manufacturer's protocol, and the fluorescence images of the cells were acquired with a fluorescence microscope and analyzed using Zeiss LSM Image Browser software program. […]
as §1

For assay [5], the system named is p-MDA-MB-231. Put plainly: Tumor volume in breast cancer animal model injected with ordinary cancer cells (P231). It is filed as in vivo, BALB/c nude mice. On the procedure: (§2) In order to identify a therapeutic method effective against cancer stem cells, breast cancer animal models were constructed. For construction of the breast cancer animal models, each of breast cancer cells (p-MDA-MB-231 and p-MCF-7) and breast cancer stem cell lines (s-MDA-MB-231 and s-MCF-7) was cultured in vitro, and the cultured cells were injected into the upper left flank of 5-6-week-old BALB/c nude mice at a density of 1.0×10^7 cells/mouse. Then, the mice were housed at 22° C. under a 12-hr light/12-hr dark cycle for 7 days while they were fed with water and feed, thereby constructing breast cancer animal models.

Assay [6] deals with s-MDA-MB-231. As to the kind of experiment: Tumor volume in breast cancer animal model injected with cancer stem cells (S231). It is filed as in vivo, BALB/c nude mice. The conditions noted are these: for tumor volume: in mm³ (unit assumed). On the procedure:
as §2

As to `C/C=C(/C)C(=O)O[C@H]1C(C)=C2[C@H]([C@@H]1OC(=O)CCCCCCC)[C@@](C)(OC(C)=O)C[C@H](OC(=O)CCC)[C@@]1(O)[C@H]2OC(=O)[C@@]1(C)O` [thapsigargin], in assay [1], the “extracellular calcium concentration of the cancer stem cells” value is “maintained at a high level”. In addition, in assay [2], the “viability of the cells” value is recorded as “also high”.

Regarding `CN([C@@H](Cc1ccc(OS(=O)(=O)c2cccc3cnccc23)cc1)C(=O)N1CCN(c2ccccc2)CC1)S(=O)(=O)c1cccc2cnccc12` [KN62, 1-[N,O-bis(5-isoquinolinesulfonyl)-N-methyl-L-tyrosyl]-4-phenylpiperazine], in assay [3], the “expression of IP3R” value is “inhibited”, the “expression of SERCA2” value is given as “increased” and the “phosphorylation of NF-kB” value is “did not occur”. For the same compound, the “apoptosis (TUNEL assay)” value in assay [4] is reported as “inducing apoptosis”.

For `O=CC[C@@H](O)[C@H](O)[C@H](O)CO` [2DG, 2-deoxyglucose], the tumor volume in assay [5] (P231, day 7, i.p. once a day, 2DG 500 mg/kg, metformin 250 mg/kg, caloxin 2al 200 mg/kg, in mm³ (unit assumed)) is listed as 219.1 ± 35; in assay [5] (P231, day 10, same dosing), 302 ± 49; in assay [5] (P231, day 13, same dosing, in mm³ (unit assumed)), 337.6 ± 47; in assay [5] (P231, day 16, same dosing, in mm³ (unit assumed)), 388.6 ± 47; in assay [5] (P231, day 19, same dosing, in mm³ (unit assumed)), 440.7 ± 45; in assay [5] (P231, day 22, same dosing, in mm³ (unit assumed)), 513.4 ± 46. The tumor volume in assay [5] (P231, day 25, same dosing, in mm³ (unit assumed)) amounted to 621.4 ± 50; in assay [5] (P231, day 28, same dosing, in mm³ (unit assumed)), 834.4 ± 48; in assay [5] (P231, day 31, same dosing, in mm³ (unit assumed)) it was 1142.7 ± 50; in assay [5] (P231, day 34, same dosing, in mm³ (unit assumed)) it was 1547.4 ± 57; in assay [5] (P231, day 37, same dosing, in mm³ (unit assumed)), 1944.2 ± 64; in assay [5] (P231, day 40, same dosing, in mm³ (unit assumed)), 2359.0 ± 48. Also, the tumor volume in assay [5] (P231, day 43, same dosing, in mm³ (unit assumed)) is 2866.1 ± 45; in assay [6] (S231, day 7, i.p. once a day, 2DG 500 mg/kg, metformin 250 mg/kg, caloxin 2al 200 mg/kg), 228.5 ± 23; in assay [6] (S231, day 10, same dosing) it was 277.6 ± 21; in assay [6] (S231, day 13, same dosing), 474.4 ± 31; in assay [6] (S231, day 16, same dosing) it was 539.2 ± 33; in assay [6] (S231, day 19, same dosing), 638.2 ± 49. Also, the tumor volume is on record as 777.0 ± 35 in assay [6] (S231, day 22, same dosing); 911.6 ± 35 in assay [6] (S231, day 25, same dosing); 1077.4 ± 68 in assay [6] (S231, day 28, same dosing); 1290.6 ± 72 in assay [6] (S231, day 31, same dosing); 1722.1 ± 69 in assay [6] (S231, day 34, same dosing); 2471.7 ± 81 in assay [6] (S231, day 37, same dosing). Also, the tumor volume in assay [6] (S231, day 40, same dosing) is 3173.2 ± 105; in assay [6] (S231, day 43, same dosing), 4065.2 ± 119. Also, the “tumor volume compared to control group (in words)” value in assay [6] (cancer stem cell model) is given as “slightly decreased”.
